Data set [1] deals with MDA-MB-468. The experiment in a line: Induction of apoptosis in human MDA-MB-468 cells assessed as late apoptotic cells at 10 uM incubated for 72 hrs by annexin V/propidium iodide staining-based flow cytometry analysis (reference value: 1.34%). Format: functional.
The nature of data set [2]: Cmax in Sprague-Dawley rat at 1 mg/kg, iv. It is filed as ADME, organism-based. On the set-up: dose 1 mg/kg, route iv. The following applies: in vivo.
Data set [3] can be described thus: Toxicity in BALB/c nude mouse xenografted with human MDA-MB-468 cells assessed as morphological changes in lung at 40 to 80 mg/kg, ig administered daily for 16 days measured every 3 days by hematoxyin-eosin staining based analysis. It is filed as organism-based. The settings on record: in vivo, po, 384 h, dose 40-80 mg/kg, time 16 day. In general terms: A xenograft is tissue or cells of one species grown in another, often human tumour cells in immunodeficient mice.

Data set [4] relates to MDA-MB-231. The experiment in a line: Inhibition of homologous recombinant repair in human MDA-MB-231 cells assessed as down-regulation of Mre11 expression at 5 to 20 uM in by Western blot analysis. Format: functional, cell-based. The following applies: dose 5-20 µM. In general terms: Immunoblotting shows a protein as a band on a membrane.

Activity calls are given as the source filed them. The rule behind the calls is not given here.

As usually defined, the Cmax is the highest concentration seen after dosing. In the case of `COc1cc(OC)c2c(=O)[nH]c(-c3cccc(Cc4n[nH]c(=O)c5ccccc45)c3)nc2c1`, the Activity in data set [1] is listed as 4.94%; in data set [3], “Non-Toxic”. The highest level in data set [2] (Cmax) was 258 ng/mL. Also, the outcome in data set [4] was Active.

(Values after ChEMBL document CHEMBL5154882, “Discovery of 4-Hydroxyquinazoline Derivatives as Small Molecular BET/PARP1 Inhibitors That Induce Defective Homologous Recombination and Lead to Synthetic Lethality for Triple-Negative Breast Cancer Therapy” (J Med Chem, 2022).)
